Assay results reported in patent US20250154169A1, “COMPOUNDS AND METHODS FOR MODULATING SPLICING” (REMIX THERAPEUTICS INC., priority 2021, published 2025).

Legend:
[1] = tested on: MYB; test: Protein abundance, HiBit-assay system (Promega), MYB; assay type: cell-based; conditions: Table 6; HiBiT-modified K562 cells, 24 hours
Text: (§1) In some embodiments, a compound of Formula (I) or (II) or a pharmaceutically acceptable salt thereof, e.g., as described herein, modulates the expression of a target protein (e.g., HTT or MYB) in a reference cell or sample. In an embodiment, a compound of Formula (I) or (II) or a pharmaceutically acceptable salt thereof, e.g., as described herein, increases the expression of a target protein (e.g., HTT or MYB) in a reference cell or sample. In an embodiment, a compound of Formula (I) or (II) or a pharmaceutically acceptable salt thereof, e.g., as described herein, decreases the expression of a target protein (e.g., HTT or MYB) in a reference cell or sample. The effect of an exemplary compound of Formula (I) or (II) on protein abundance may be measured using a standard assay for measuring protein abundance, such as the HiBit-assay system (Promega). In this assay, percent response for each respective cell line may be as calculated at each compound concentration as follows: % response=100*(S−PC)/(NC−PC). For the normalized response at each concentration, a four-parameter logistical regression may be fit to the data and the response may be interpolated at the 50% value to determine a concentration for protein abundance at 50% (IC50) an untreated control. In an embodiment, a compound of Formula (I) or (II) or a pharmaceutically acceptable salt thereof, e.g., as described herein, has a protein abundance response less than 100 nM. In an embodiment, a compound of Formula (I) or (II) or a pharmaceutically acceptable salt thereof, e.g., as described herein, has a protein abundance response between 100-1000 nM. In an embodiment, a compound of Formula (I) or (II) or a pharmaceutically acceptable salt thereof, e.g., as described herein, has a protein abundance response greater than 1000 nM. In an embodiment, a compound of Formula (I) or (II) or a pharmaceutically acceptable salt thereof, e.g., as described herein, has a protein abundance response greater than 10 uM. In an embodiment, a compound of Formula (I) or (II) or a pharmaceutically acceptable salt thereof, e.g., as described herein, modulates the protein abundance of a target protein by about 1%, 5%, 10%, 15%, 20%, 25%, 30%, 35%, 40%, 45%, 50%, 55%, 60%, 65%, 70%, 75%, 80%, 85%, 90%, 95%, 99% or more, e.g., compared with a reference compound.

[2] = tested on: HTT mRNA; test: Splicing RT-qPCR assay, HTT canonical (CJ) and alternative (AJ) junction mRNA; assay type: cell-based, human; conditions: Homo sapiens, A673 or K562 cells, 24 hours compound treatment; for IC50: 24 h, read-out: HTT CJ (IC50, decrease in canonical junction mRNA); for AC50: read-out: HTT AJ (AC50, increase in alternative junction mRNA)
Summary of the method: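 One-step RT-qPCR on cell lysates, CJ and AJ isoforms quantified; housekeeping normalization GAPDH/GUSB (K562) or PPIA (A673). Cells: A673 in DMEM/10% FBS or K562 in IMDM/10% FBS. Compounds 11-pt 3-fold, top 10 uM, 24 h, 37 °C, 5% CO2.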

[3] = tested on: HTT; test: Protein abundance, HiBit-assay system (Promega), HTT; assay type: cell-based; conditions: Table 6; HiBiT-modified K562 cells, 24 hours
Text: as §1

Compound	IC50 [1] [nM]	IC50 [2] [nM]	AC50 [2] [nM]	IC50 [3] [nM]
Cc1cn2cc(NC(=O)c3ccc(N4CC[C@@H](NC56CC(C5)C6)C4)c4cn(C)nc34)cc(F)c2n1 [Compound 568, 4-[(3R)-3-{bicyclo[1.1.1]pentan-1-ylamino}pyrrolidin-1-yl]-N-{8-fluoro-2-methylimidazo[1,2-a]pyridin-6-yl}-2-methylindazole-7-carboxamide]	1000 to 10000	1000 to 10000	1000 to 10000	1000 to 10000
CCn1cc2c(N3CCC(NC4CC4)C3)cc(F)c(C(=O)Nc3cc(F)c4nc(C)cn4c3)c2n1 (stereo not drawn) [Compound 569, 4-[3-(cyclopropylamino)pyrrolidin-1-yl]-2-ethyl-6-fluoro-N-{8-fluoro-2-methylimidazo[1,2-a]pyridin-6-yl}indazole-7-carboxamide]	< 100	> 10000	1000 to 10000	1000 to 10000
Cc1cn2cc(NC(=O)c3c(F)cc(N4CC[C@@H](NC5CC5)C4)c4cn(C)nc34)cc(F)c2n1 [Compound 571, 4-[(3R)-3-(cyclopropylamino)pyrrolidin-1-yl]-6-fluoro-N-{8-fluoro-2-methylimidazo[1,2-a]pyridin-6-yl}-2-methylindazole-7-carboxamide]	< 100	100 to 1000	100 to 1000	100 to 1000
Cc1cn2cc(NC(=O)c3ccc(N4CC[C@@H](NCc5cnc(Cl)nc5)C4)c4cn(C)nc34)cc(F)c2n1 [Compound 573, 4-[(3R)-3-{[(2-chloropyrimidin-5-yl)methyl]amino}pyrrolidin-1-yl]-N-{8-fluoro-2-methylimidazo[1,2-a]pyridin-6-yl}-2-methylindazole-7-carboxamide]	1000 to 10000	> 10000	> 10000	> 10000
Cc1cn2cc(NC(=O)c3ccc(N4CCC(C)(NC(C)C)C4)c4cn(C)nc34)cc(F)c2n1 (stereo not drawn) [Compound 574]	100 to 1000	> 10000	> 10000	> 10000
CCn1cc2c(N3CCNCC3)ccc(C(=O)Nc3cc(F)c4ncccc4c3)c2n1 [Compound 575]	1000 to 10000	> 10000	> 10000	1000 to 10000
